Experimental data from PubChem BioAssay AID1259407 (Chemical Carcinogenesis Research Information System (CCRIS), 2018).
The source made the active and inactive calls. The rule behind the calls is not given here.

Tested on: CCRIS mutagenicity, Ames/micronucleus/aberration tests
Assay: CCRIS mutagenicity studies
[1] = Test System: AMES SALMONELLA TYPHIMURIUM, Strain/Indicator: TA98, Metabolic Activation: NONE, Method: STANDARD PLATE
[2] = Test System: AMES SALMONELLA TYPHIMURIUM, Strain/Indicator: TA100, Metabolic Activation: NONE, Method: STANDARD PLATE
[3] = Test System: AMES SALMONELLA TYPHIMURIUM, Strain/Indicator: TA1537, Metabolic Activation: NONE, Method: STANDARD PLATE

## COc1cc(-c2ccc(N/N=C3\C(=O)c4ccc(N)cc4C=C3S(=O)(=O)O)c(OC)c2)ccc1N/N=C1/C=C(S(=O)(=O)O)c2ccccc2C1=O
Test System: AMES SALMONELLA TYPHIMURIUM, Strain/Indicator: TA98, Metabolic Activation: HAMSTER, LIVER, S-9, Method: PREINCUBATION (PRIVAL METHOD)
  mutagenic call: active; positive

## O=C(O)/C=C/c1ccc([N+](=O)[O-])cc1
Test System: AMES SALMONELLA TYPHIMURIUM, Strain/Indicator: TA98(1,8-DNP6), Metabolic Activation: NONE, Method: PREINCUBATION
  mutagenic call: active; positive
Test System: AMES SALMONELLA TYPHIMURIUM, Strain/Indicator: TA98(1,8-DNP6), Metabolic Activation: RAT, LIVER, S-9, AROCLOR 1254, Method: PREINCUBATION
  mutagenic call: active; positive
Test System: AMES SALMONELLA TYPHIMURIUM, Strain/Indicator: TA98(NR), Metabolic Activation: NONE, Method: PREINCUBATION
  mutagenic call: active; positive
Test System: AMES SALMONELLA TYPHIMURIUM, Strain/Indicator: TA98(NR), Metabolic Activation: RAT, LIVER, S-9, AROCLOR 1254, Method: PREINCUBATION
  mutagenic call: active; positive
Test System: AMES SALMONELLA TYPHIMURIUM, Strain/Indicator: TA98, Metabolic Activation: NONE, Method: PREINCUBATION
  mutagenic call: active; positive
[1]
  mutagenic call: active; positive
Test System: AMES SALMONELLA TYPHIMURIUM, Strain/Indicator: TA98, Metabolic Activation: RAT, LIVER, S-9, AROCLOR 1254, Method: PREINCUBATION
  mutagenic call: active; positive
Test System: AMES SALMONELLA TYPHIMURIUM, Strain/Indicator: TA98, Metabolic Activation: RAT, LIVER, S-9, AROCLOR 1254, Method: STANDARD PLATE
  mutagenic call: active; positive
Test System: AMES SALMONELLA TYPHIMURIUM, Strain/Indicator: TA100(1,8-DNP6), Metabolic Activation: NONE, Method: PREINCUBATION
  mutagenic call: active; positive
Test System: AMES SALMONELLA TYPHIMURIUM, Strain/Indicator: TA100(1,8-DNP6), Metabolic Activation: RAT, LIVER, S-9, AROCLOR 1254, Method: PREINCUBATION
  mutagenic call: active; positive
Test System: AMES SALMONELLA TYPHIMURIUM, Strain/Indicator: TA100(NR), Metabolic Activation: NONE, Method: PREINCUBATION
  mutagenic call: active; positive
Test System: AMES SALMONELLA TYPHIMURIUM, Strain/Indicator: TA100(NR), Metabolic Activation: RAT, LIVER, S-9, AROCLOR 1254, Method: PREINCUBATION
  mutagenic call: active; positive
Test System: AMES SALMONELLA TYPHIMURIUM, Strain/Indicator: TA100, Metabolic Activation: NONE, Method: PREINCUBATION
  mutagenic call: active; positive
[2]
  mutagenic call: active; positive
Test System: AMES SALMONELLA TYPHIMURIUM, Strain/Indicator: TA100, Metabolic Activation: RAT, LIVER, S-9, AROCLOR 1254, Method: PREINCUBATION
  mutagenic call: active; positive
Test System: AMES SALMONELLA TYPHIMURIUM, Strain/Indicator: TA100, Metabolic Activation: RAT, LIVER, S-9, AROCLOR 1254, Method: STANDARD PLATE
  mutagenic call: active; positive
Test System: AMES SALMONELLA TYPHIMURIUM, Strain/Indicator: TA1535, Metabolic Activation: NONE, Method: PREINCUBATION
  mutagenic call: active; positive
Test System: AMES SALMONELLA TYPHIMURIUM, Strain/Indicator: TA1537, Metabolic Activation: NONE, Method: PREINCUBATION
  mutagenic call: active; positive
Test System: AMES SALMONELLA TYPHIMURIUM, Strain/Indicator: TA1538, Metabolic Activation: NONE, Method: PREINCUBATION
  mutagenic call: active; positive

## CC\C=C/C=C\C=C/C=C\C=C/OCC(O)CO (stereo unspecified)
[1]
  mutagenic call: active; positive
[2]
  mutagenic call: active; positive
Test System: AMES SALMONELLA TYPHIMURIUM, Strain/Indicator: TA104, Metabolic Activation: NONE, Method: STANDARD PLATE
  mutagenic call: active; positive

## FC(F)(F)C(F)(F)C(Cl)Cl
[1]
  mutagenic call: inactive; negative
Test System: AMES SALMONELLA TYPHIMURIUM, Strain/Indicator: TA98, Metabolic Activation: RAT LIVER S-9, PHENOBARBITAL, 5,6-BENZOFLAVONE, Method: STANDARD PLATE
  mutagenic call: inactive; negative
[2]
  mutagenic call: inactive; negative
Test System: AMES SALMONELLA TYPHIMURIUM, Strain/Indicator: TA100, Metabolic Activation: RAT LIVER S-9, PHENOBARBITAL, 5,6-BENZOFLAVONE, Method: STANDARD PLATE
  mutagenic call: inactive; negative
Test System: AMES SALMONELLA TYPHIMURIUM, Strain/Indicator: TA1535, Metabolic Activation: NONE, Method: STANDARD PLATE
  mutagenic call: inactive; negative
Test System: AMES SALMONELLA TYPHIMURIUM, Strain/Indicator: TA1535, Metabolic Activation: RAT LIVER S-9, PHENOBARBITAL, 5,6-BENZOFLAVONE, Method: STANDARD PLATE
  mutagenic call: inactive; negative
[3]
  mutagenic call: inactive; negative
Test System: AMES SALMONELLA TYPHIMURIUM, Strain/Indicator: TA1537, Metabolic Activation: RAT LIVER S-9, PHENOBARBITAL, 5,6-BENZOFLAVONE, Method: STANDARD PLATE
  mutagenic call: inactive; negative
Test System: ESCHERICHIA COLI, Strain/Indicator: WP2 UVR A, Metabolic Activation: NONE, Method: STANDARD PLATE
  mutagenic call: inactive; negative
Test System: ESCHERICHIA COLI, Strain/Indicator: WP2 UVR A, Metabolic Activation: RAT LIVER S-9, PHENOBARBITAL, 5,6-BENZOFLAVONE, Method: STANDARD PLATE
  mutagenic call: inactive; negative
Test System: UDS RAT HEPATOCYTES IN VIVO, Strain/Indicator: THYMIDINE INCORPORATION, Metabolic Activation: NONE, Method: INHALATION (6HR, NOSE-ONLY, 2-OR 16-HR HARVEST)/AUTORADIOGRAPHY
  mutagenic call: inactive; negative

## O=C(NCc1ccccc1)C(Cl)c1ccccc1 (stereo unspecified)
Test System: AMES SALMONELLA TYPHIMURIUM, Strain/Indicator: TA100, Metabolic Activation: MOUSE, LIVER, S-9, AROCLOR 1254, Method: STANDARD PLATE
  mutagenic call: inactive; negative
[2]
  mutagenic call: active; positive

## O=C(CCBr)N1CCN(C(=O)CCBr)CC1
[1]
  mutagenic call: inactive; negative
[2]
  mutagenic call: active; positive
Test System: AMES SALMONELLA TYPHIMURIUM, Strain/Indicator: TA102, Metabolic Activation: NONE, Method: STANDARD PLATE
  mutagenic call: inactive; negative
[3]
  mutagenic call: inactive; negative
Test System: E. COLI, Strain/Indicator: WP2 (HCR), Metabolic Activation: NONE, Method: STANDARD PLATE
  mutagenic call: active; positive
